Measurements: PubChem BioAssay AID1963981 (Molecular Pharmacology Branch, DTP, NCI, 2024)

Test system: 354836-022-R-J1-PDC multicell spheroid viability
Assay: Anticancer human tumor 354836-022-R-J1-PDC patient-derived head and neck squamous cell carcinoma cell line growth inhibition [PI3K]
Settings: for viability, T/C: stronger effect = lower value; active = viability on the fitted dose curve at most 10% of control; inactive = the rest
Summary of the method: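 Targeted small molecules plus PI3K inhibitors, half-log dose series from Cmax (default top 10 microM), were applied to heterotypic spheroids of cancer cells with HUVEC and MSCs. Viability indicated growth inhibition.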

[1] = curve of first compound, second compound 0.0316 µM
[2] = curve of first compound, second compound 0.1 µM
[3] = curve of first compound, second compound 0.316 µM
[4] = curve of first compound, second compound 1 µM
[5] = curve of first compound, second compound 3.16 µM
[6] = curve of first compound, second compound 10 µM
[7] = second compound 0.0316 µM, first compound 0.0316 µM
[8] = second compound 0.0316 µM, first compound 0.1 µM
[9] = second compound 0.0316 µM, first compound 0.316 µM
[10] = second compound 0.0316 µM, first compound 1 µM
[11] = second compound 0.0316 µM, first compound 3.16 µM
[12] = second compound 0.0316 µM, first compound 10 µM
[13] = second compound 0.1 µM, first compound 0.0316 µM
[14] = second compound 0.1 µM, first compound 0.1 µM
[15] = second compound 0.1 µM, first compound 0.316 µM
[16] = second compound 0.1 µM, first compound 1 µM
[17] = second compound 0.1 µM, first compound 3.16 µM
[18] = second compound 0.1 µM, first compound 10 µM
[19] = second compound 0.316 µM, first compound 0.0316 µM
[20] = second compound 0.316 µM, first compound 0.1 µM
[21] = second compound 0.316 µM, first compound 0.316 µM
[22] = second compound 0.316 µM, first compound 1 µM
[23] = second compound 0.316 µM, first compound 3.16 µM
[24] = second compound 0.316 µM, first compound 10 µM
[25] = second compound 1 µM, first compound 0.0316 µM
[26] = second compound 1 µM, first compound 0.1 µM
[27] = second compound 1 µM, first compound 0.316 µM
[28] = second compound 1 µM, first compound 1 µM
[29] = second compound 1 µM, first compound 3.16 µM
[30] = second compound 1 µM, first compound 10 µM
[31] = second compound 3.16 µM, first compound 0.0316 µM
[32] = second compound 3.16 µM, first compound 0.1 µM
[33] = second compound 3.16 µM, first compound 0.316 µM
[34] = second compound 3.16 µM, first compound 1 µM
[35] = second compound 3.16 µM, first compound 3.16 µM
[36] = second compound 3.16 µM, first compound 10 µM
[37] = second compound 10 µM, first compound 0.0316 µM
[38] = second compound 10 µM, first compound 0.1 µM
[39] = second compound 10 µM, first compound 0.316 µM
[40] = second compound 10 µM, first compound 1 µM
[41] = second compound 10 µM, first compound 3.16 µM
[42] = second compound 10 µM, first compound 10 µM
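Also: spheroids exposed to agents for seven days before the viability read.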

C#Cc1c(F)ccc2cc(O)cc(-c3ncc4c(N5CC6CCC(C5)N6)nc(OCC56CCCN5CC(F)C6)nc4c3F)c12 (stereo unspecified) + CC(Nc1ncnc2nc[nH]c12)c1cc2cccc(Cl)c2c(=O)n1-c1ccccc1
inactive: viability, T/C [7] 94.8% | viability, T/C [8] 85% | viability, T/C [9] 88.6% | viability, T/C [10] 105% | viability, T/C [11] 85.5% | viability, T/C [12] 96.4% | viability, T/C [13] 84.9% | viability, T/C [14] 105% | viability, T/C [15] 96.4% | viability, T/C [16] 96.2% | viability, T/C [17] 110% | viability, T/C [18] 102% | viability, T/C [19] 85.4% | viability, T/C [20] 110% | viability, T/C [21] 103% | viability, T/C [22] 108% | viability, T/C [23] 98.3% | viability, T/C [24] 89.9% | viability, T/C [25] 91.1% | viability, T/C [26] 86.9% | viability, T/C [27] 100% | viability, T/C [28] 92.3% | viability, T/C [29] 96.4% | viability, T/C [30] 74.9% | viability, T/C [31] 95.4% | viability, T/C [32] 105% | viability, T/C [33] 96.3% | viability, T/C [34] 110% | viability, T/C [35] 99% | viability, T/C [36] 70% | viability, T/C [37] 95.3% | viability, T/C [38] 82.5% | viability, T/C [39] 84.5% | viability, T/C [40] 80.8% | viability, T/C [41] 78.4% | viability, T/C [42] 75.1%
> 10000 nM: IC50 [1] | IC50 [2] | IC50 [3] | IC50 [4] | IC50 [5] | IC50 [6]

CC1(C)CCC(Nc2ncc(C(F)(F)F)c(-c3c[nH]c4c(P(C)(C)=O)c(C#N)ccc34)n2)CN1 (stereo unspecified) + Cc1nc(NC(=O)N2CCCC2C(N)=O)sc1-c1ccnc(C(C)(C)C(F)(F)F)c1
inactive: viability, T/C [7] 20.2% | viability, T/C [8] 20.2% | viability, T/C [9] 26.7% | viability, T/C [10] 25.1% | viability, T/C [11] 29.1% | viability, T/C [12] 2.24% | viability, T/C [13] 22.8% | viability, T/C [14] 21.6% | viability, T/C [15] 25.9% | viability, T/C [16] 23% | viability, T/C [17] 28.9% | viability, T/C [18] 1.52% | viability, T/C [19] 17.8% | viability, T/C [20] 20% | viability, T/C [21] 19.3% | viability, T/C [22] 25% | viability, T/C [23] 24% | viability, T/C [24] 1.82% | viability, T/C [25] 14.9% | viability, T/C [26] 18% | viability, T/C [27] 14.6% | viability, T/C [28] 20.5% | viability, T/C [29] 20.2% | viability, T/C [30] 1.74% | viability, T/C [31] 13.2% | viability, T/C [32] 15.6% | viability, T/C [33] 14.9% | viability, T/C [34] 15.1% | viability, T/C [35] 18.4% | viability, T/C [37] 12.7% | viability, T/C [38] 10.6% | viability, T/C [39] 11.6% | viability, T/C [40] 17.2%
active: viability, T/C [36] 1% | viability, T/C [41] 12.3% | viability, T/C [42] 0.79%
< 31.6 nM: IC50 [1] | IC50 [2] | IC50 [3] | IC50 [4] | IC50 [5] | IC50 [6]

Cn1ncnc1[C@H]1c2n[nH]c(=O)c3cc(F)cc(c23)N[C@@H]1c1ccc(F)cc1
> 100 nM: IC50 (curve of compound)
inactive: viability, T/C (compound 0.000316 µM) 101% [middle of 4 runs] | viability, T/C (compound 0.001 µM) 100% [middle of 4 runs] | viability, T/C (compound 0.00316 µM) 98.7% [middle of 4 runs] | viability, T/C (compound 0.01 µM) 92.5% [middle of 4 runs] | viability, T/C (compound 0.0316 µM) 96.4% [middle of 4 runs] | viability, T/C (compound 0.1 µM) 92.1% [middle of 4 runs]
